Data from US20230393140A1, “BINDING ASSAYS INVOLVING A PLURALITY OF SYNTHETIC COMPOUNDS, TARGETS, AND COUNTER TARGETS” (SRI International, priority 2020, published 2023).
Read-outs that look alike come from different tables or passages of the source. Numbered stars: 1 amine (or outer) side, 2 acyl side, 3 side chain; on linkers, the order of the positions; unused ones are H or OH. Square brackets hold non-standard residues; d marks the D form. Peptide text beside a SMILES is read from it. * marks the point of attachment. 5FAM = O=C1OC2(c3ccc(O)cc3Oc3cc(O)ccc32)c2ccc(C(=O)*)cc21; NHCH2C6H4(4-CH2CONH2) = NC(=O)Cc1ccc(CN*)cc1; X1 = O=C(Cc1ccc(CN[*:1])cc1)[*:2]

Columns and labels:
K-Ras = molecular target: T1, K-Ras (Homo sapiens, UniProt P01116, G12V); assay: MST binding affinity of resynthesized NNP hits to K-Ras
T1 construct: purchased Cytoskeleton Inc. CS-RS04
In short: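 K-Ras G12V was GTP-loaded (EDTA exchange, 750 μM GTP, 2 h at 30° C, then MgCl2) and labeled with maleimide-647 dye. MST was run at room temperature in 20 mM HEPES pH 7.4, 150 mM NaCl, 10 mM MgCl2, 0.05% Tween-20, 1 mM DTT. Incubations lasted 15, 30 and 45 min; triplicate data fitted for affinity.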

K-Ras-Raf interaction = molecular target: T2, K-Ras-Raf interaction (Homo sapiens, UniProt P01116, G12V); assay: K-Ras/Raf inhibition assay (MST competition binding); details: NNP at 1 μM pre-incubated with K-Ras 15 minutes at room temperature, then Raf titration
T2 construct: purchased Cytoskeleton Inc. (K-Ras); Jena Bioscience (Raf-RBD) CS-RS04; PR-305
Description: This was tested on an MST competition binding assay (see FIG. 11A).
Loading was performed according to the following protocol: The 200 μM stock solution of the target protein was diluted to 10 μM in 20 mM HEPES pH 8.0, 150 mM NaCl, 10 mM MgCl2, 1 mM TCEP, 0.05% Tween-20 (total volume 110 μL). 10 μL were set aside for later labeling quality control. EDTA pH 8.0 (stock concentration 10 mM) was added to the protein solution to a final concentration of 80 μM. GTP (stock concentration 50 mM) was added to the protein solution to a final concentration of 750 μM. The solution was incubated at 30° C. for 2 hours (PCR tube) and then placed on ice for 2 minutes. MgCl2 was added to the protein solution to a final concentration of 100 mM. The resulting protein solution was buffer exchanged into the buffer required in the labeling kit for labeling. […] All the other target molecules (TNFα, IL-6, IL-6R and ASGPR) were used as received without any additional treatment.
Loading of K-Ras with the GTP was performed according to the protocol detailed above (Activation of K-Ras by GTP loading). After the GTP loading the resulting protein solution was buffer exchanged into 100 mM HEPES pH 6.5, 5 mM MgCl2, 50 mM NaCl, 1 mM TCEP.

[1] = molecular target: T3, K-Ras-CF555 versus Raf-AF647 (Homo sapiens, UniProt P01116, G12V); assay: On-bead FAST/ADM competition screen, MFI of target and counter target; assay type: binding; details: hit bead in primary competition screen
T3 construct: purchased Cytoskeleton Inc. (K-Ras); Jena Bioscience (Raf-RBD) CS-RS04; PR-305

[2] = system: HepG2 cells (high ASGPR expressing); assay: ASGPR uptake assay, flow cytometry, HepG2; assay type: cell-based, human; details: fluorescein-labeled compounds, flow cytometry, 2 hours
Description: (§1) The HEK293T (human embryonic kidney cells) and human hepatoma HepG2 cells were grown according to the protocols provided by the American Type Culture Collection (ATCC). When cells reached cell were seeded at ˜1.5×10^5 cells/well in 24-well culture plate for the uptake assay. After at least 16 hours of culture to allow cell attach and equilibrate, the compound treatment was set up for the uptake assay.
(§2) The fluorescein-labeled NNPs or fluorescein-labeled N-acetylgalactosamine (GalNAc) recognizing ASGRPR were added to wells at indicated concentrations and incubated for 2 hours. Two plates were prepared for each treatment condition, one serving as 4 degrees C. no internalization control that was kept on ice during incubation, while the second plate was incubated at 37 degrees C. to allow for energy dependent internalization. Following the incubation period, all plates were placed on ice and washed three times with ice-cold PBS/3% BSA/2 mM EDTA and then lifted with trypsin. Cells were transferred to a 96-well round bottom plates in FACS buffer. Cells were then analyzed by flow cytometry using LSR-HJ with HTS sampler (BD Biosciences, San Jose, CA, USA). Data (mean fluorescence intensities) and further analyzed using Flowjo software (BD Biosciences, San Jose, CA, USA). The internalized fraction was expressed as the difference between the corresponding 4 degrees C. and 37 degrees C. MFIs as previously described.

[3] = system: HEK293 cells (non-expressing); assay: ASGPR uptake assay, flow cytometry, HEK293; assay type: cell-based, human; details: fluorescein-labeled compounds
Description: as §1
as §2, with “MFIs as previously described.” left out

| SMILES | Kd (K-Ras; read-out: KD of K-Ras hits by MST) | Inhibition of K-Ras-Raf PPI (K-Ras-Raf interaction) | MFI ratio of the target (K-Ras-CF555) to the counter target (Raf-AF647) for the hit beads [1] | Kd (K-Ras; read-out: KD (nM) [95% conf. int], MST, NNP1 library hit, target K-Ras, one-site binding model) | Internalization (cell uptake) in HepG2 [2] | Internalization (cell uptake) in HEK293 [3] |
| --- | --- | --- | --- | --- | --- | --- |
| CC(C)C[C@@H](NC(=O)c1ccc2c(c1)C(=O)OC21c2ccc(O)cc2Oc2cc(O)ccc21)C(=O)N1CCC[C@@H]1C(=O)N[C@H](CCC(=O)O)C(=O)N[C@H](CO)C(=O)N[C@@H](Cc1ccccc1)C(=O)NCc1ccc(CC(=O)NCC(=O)N[C@@H](C(=O)N2CCC[C@@H]2C(=O)N[C@H](CCCNC(=N)N)C(=O)N[C@@H](C)C(=O)NCc2ccc(CC(=O)N3CCC[C@@H]3C(=O)N[C@H](CO)C(=O)N[C@H](CCC(=O)O)C(=O)N[C@H](CCCNC(=N)N)C(=O)NCC(=O)NCc3ccc(CC(=O)N4CCC[C@@H]4C(=O)N[C@H](CCCCN)C(=O)N[C@H](Cc4ccc(O)cc4)C(=O)N[C@H](CCCNC(=N)N)C(=O)N[C@@H](Cc4ccccc4)C(=O)NCc4ccc(CC(=O)N[C@H](CCCNC(=N)N)C(=O)N[C@H](Cc5ccc(O)cc5)C(=O)N[C@@H](C(=O)N[C@H](CCC(=O)O)C(=O)N[C@@H](C)C(=O)NCc5ccc(CC(=O)N[C@H](Cc6ccc(O)cc6)C(=O)N6CCC[C@@H]6C(=O)N[C@H](CCCNC(=N)N)C(=O)N[C@H](CCC(=O)O)C(=O)NCC(=O)NCc6ccc(CC(N)=O)cc6)cc5)[C@H](C)O)cc4)cc3)cc2)C(C)C)cc1 [KRAS-1-4] (5FAM-[dL][dP][dE][dS]F[X1]G[dV][dP][dR]A[X1][dP][dS][dE][dR]G[X1][dP][dK][dY][dR]F[X1][dR][dY][dT][dE]A[X1][dY][dP][dR][dE]G-{NHCH2C6H4(4-CH2CONH2)}) | 36 nM | no inhibition | 1.89 | – | – | – |
| CC(C)C[C@@H](NC(=O)[C@@H](CCC(=O)O)NC(=O)[C@@H](C)NC(=O)Cc1ccc(CNC(=O)[C@H](Cc2ccccc2)NC(=O)[C@@H](CCCNC(=N)N)NC(=O)[C@@H](Cc2ccc(O)cc2)NC(=O)[C@@H](CCCCN)NC(=O)[C@H]2CCCN2C(=O)Cc2ccc(CNC(=O)CNC(=O)[C@@H](CCCNC(=N)N)NC(=O)[C@@H](CCC(=O)O)NC(=O)[C@@H](CO)NC(=O)[C@H]3CCCN3C(=O)Cc3ccc(CNC(=O)[C@H](C)NC(=O)[C@@H](CCCNC(=N)N)NC(=O)[C@H]4CCCN4C(=O)[C@H](NC(=O)CNC(=O)Cc4ccc(CNC(=O)[C@H](Cc5ccccc5)NC(=O)[C@@H](CCC(=O)O)NC(=O)[C@@H](Cc5c[nH]cn5)NC(=O)[C@H]5CCCN5C(=O)[C@@H](CO)NC(=O)c5ccc6c(c5)C(=O)OC65c6ccc(O)cc6Oc6cc(O)ccc65)cc4)C(C)C)cc3)cc2)cc1)C(=O)N[C@H](CCCCN)C(=O)N[C@@H](C)C(=O)NCc1ccc(CC(=O)NCC(=O)N[C@H](Cc2c[nH]c3ccccc23)C(=O)N[C@H](Cc2c[nH]cn2)C(=O)N[C@H](CCCNC(=N)N)C(=O)N[C@@H](C)C(=O)NCc2ccc(CC(N)=O)cc2)cc1 [KRAS-1-14] (5FAM-[dS][dP][dH][dE]F[X1]G[dV][dP][dR]A[X1][dP][dS][dE][dR]G[X1][dP][dK][dY][dR]F[X1][dA][dE][dL][dK]A[X1]G[dW][dH][dR]A-{NHCH2C6H4(4-CH2CONH2)}) | – | – | – | 155 nM | minimal uptake | minimal uptake |
